# Read-outs that look alike come from different tables or passages of the source.
# Legend:
# Type in all cases: cell-based, human
# A459 = assay: MTT survival assay, lung cancer cell line (A459); details: A459 Experiment #2; for IC50: Homo sapiens
# Description: (§1) The effect of the above identified compounds on anti-tumor activity in human carcinoma cells was determined by the MTT survival assay. The MTT assay is a commonly used method in evaluation of cell survival, based on the ability of viable cells to convert MTT (MTT, Sigma, Cat No. 044K5307), a soluble tetrazolium salt [3-(4,5-dimethylthuazole-2-yl)-2,5 diphenyl tetrazolium bromide], into an insoluble formazan precipitate, which is quantitated by spectrophotometry following solubilization in dimethyl sulfoxide (DMSO).
# (§2) In brief, different carcinoma cells were treated with negative control, various test articles at different concentration, and positive control (DDP), in 96-well tissue culture dishes. Each test article at different concentration is repeated 3 times.
# (§3) Different carcinoma cells were diluted with 10% FBS and RPM1640 or MEM media to a concentration of 3-5×10^4 per ml suspension. 100 microliter of cells were incubated in each well in 96-well tissue culture dishes at 37 C. The cells were incubated at 37 C on the first day. On the second day, media supernatant was removed and replaced with media and different concentration of test articles (100 microliter in each well). Three Negative control wells and three positive control (DDP) wells were also included. The 96-well plate were incubated at 37 C for another 68 hours. After 68 hours, supernatant of each well was removed. 100 microliter of 1 mg/ml MTT diluted in PBS was injected into each well. The cells were incubated at 37 C for another 4 hours. The cells were then solubilized in 150 microliter DMSO, mixed for 10 minutes and absorbance readings were taken using Microplate reader Bio-Rad Model 550 at 570 nm. IR (cell growth inhibition rate) % was calculated as (OD570 of negative control-OD570 with test article)/OD570 of negative control. IC50 (cell 50% inhibition concentration) at 95% confidence level was calculated with Bliss method.
# SMMC-7721 = assay: MTT survival assay, liver cancer cell line (SMMC-7721); details: SMMC-7721 Experiment #2; for IC50: Homo sapiens
# Description: as §1, §2, §3
# SKOV3 = assay: MTT survival assay, ovarian cancer cell line (SKOV3); details: SKOV3 (second table)
# Description: as §1, §2, §3
# Hela cells = assay: MTT survival assay, cervical cancer line (Hela cells); details: for IC50: Homo sapiens
# Description: as §1, §2, §3
# U251 = assay: MTT survival assay, glioma cell line (brain tumor U251); details: U251 (second table)
# Description: as §1, §2, §3
# MCF-7 = assay: MTT survival assay, breast cancer cell line (MCF-7); details: for IC50: Homo sapiens
# Description: as §1, §2, §3
# [1] = 95% confidence limits of IC50, read-out: IC50 (95% confidence level), interval
# [2] = Bliss method, unit not printed (concentrations in μg/ml), read-out: IC50 (95% confidence level)
smiles,measurement,setting,value
Cc1ccc(S(=O)(=O)NCC(=O)NCC(c2ccccc2)c2c[nH]c3ccccc23)cc1 (centres unmarked) [Mol 640],IR (%),A459; 3.125 μg/ml,−22.6%
same,OD(A570 nm),A459; 3.125 μg/ml,0.781 ± 0.040
same,IR (%),A459; 6.25 μg/ml,−12.5%
same,OD(A570 nm),A459; 6.25 μg/ml,0.717 ± 0.020
same,IR (%),A459; 12.5 μg/ml,6.9%
same,OD(A570 nm),A459; 12.5 μg/ml,0.593 ± 0.034
same,IR (%),A459; 25 μg/ml,63.6%
same,OD(A570 nm),A459; 25 μg/ml,0.232 ± 0.006
same,IR (%),A459; 50 μg/ml,87.2%
same,OD(A570 nm),A459; 50 μg/ml,0.081 ± 0.010
same,IR (%),A459; 100 μg/ml,87.1%
same,OD(A570 nm),A459; 100 μg/ml,0.082 ± 0.014
same,IC50,A459; [1],25.5 to 26.1 µg/mL
same,IC50,A459; [2],25.8 µg/mL
same,IC50,SMMC-7721; [1],7.68 to 8.36 µg/mL
same,IC50,SMMC-7721; [2],8.02 µg/mL
same,IR (%),SMMC-7721; 3.125 μg/ml,53.4%
same,OD(A570 nm),SMMC-7721; 3.125 μg/ml,0.215 ± 0.008
same,IR (%),SMMC-7721; 6.25 μg/ml,39.8%
same,OD(A570 nm),SMMC-7721; 6.25 μg/ml,0.278 ± 0.013
same,IR (%),SMMC-7721; 12.5 μg/ml,41.9%
same,OD(A570 nm),SMMC-7721; 12.5 μg/ml,0.268 ± 0.013
same,IR (%),SMMC-7721; 25 μg/ml,56.6%
same,OD(A570 nm),SMMC-7721; 25 μg/ml,0.200 ± 0.002
same,IR (%),SMMC-7721; 50 μg/ml,80.2%
same,OD(A570 nm),SMMC-7721; 50 μg/ml,0.091 ± 0.002
same,IR (%),SMMC-7721; 100 μg/ml,78.7%
same,OD(A570 nm),SMMC-7721; 100 μg/ml,0.098 ± 0.014
same,IC50,"SKOV3; Homo sapiens, SK-OV-3, Bliss method, unit not printed (concentrations in μg/ml), read-out: IC50 (95% confidence level)",26.9 µg/mL
same,IR (%),SKOV3; 3.125 μg/ml,0%
same,OD(A570 nm),SKOV3; 3.125 μg/ml,0.716 ± 0.048
same,IR (%),SKOV3; 6.25 μg/ml,10.3%
same,OD(A570 nm),SKOV3; 6.25 μg/ml,0.628 ± 0.025
same,IR (%),SKOV3; 12.5 μg/ml,9.7%
same,OD(A570 nm),SKOV3; 12.5 μg/ml,0.632 ± 0.020
same,IR (%),SKOV3; 25 μg/ml,43.8%
same,OD(A570 nm),SKOV3; 25 μg/ml,0.394 ± 0.037
same,IR (%),SKOV3; 50 μg/ml,88.3%
same,OD(A570 nm),SKOV3; 50 μg/ml,0.082 ± 0.008
same,IR (%),SKOV3; 100 μg/ml,88.7%
same,OD(A570 nm),SKOV3; 100 μg/ml,0.079 ± 0.010
same,IR (%),Hela cells; 0.41 μg/ml,12.3%
same,OD(A570 nm),Hela cells; 0.41 μg/ml,0.651 ± 0.044
same,OD(A570 nm),Hela cells; 1.23 μg/ml,0.826 ± 0.101
same,OD(A570 nm),Hela cells; 3.70 μg/ml,0.819 ± 0.085
same,IR (%),Hela cells; 11.11 μg/ml,12.2%
same,OD(A570 nm),Hela cells; 11.11 μg/ml,0.652 ± 0.057
same,IR (%),Hela cells; 33.33 μg/ml,76.8%
same,OD(A570 nm),Hela cells; 33.33 μg/ml,0.172 ± 0.010
same,IR (%),Hela cells; 100 μg/ml,89.5%
same,OD(A570 nm),Hela cells; 100 μg/ml,0.078 ± 0.023
same,IC50,Hela cells; [1],21.9 to 29.1 µg/mL
same,IC50,Hela cells; [2],25.3 µg/mL
same,IC50,"U251; Homo sapiens, U-251, Bliss method, unit not printed (concentrations in μg/ml), read-out: IC50 (95% confidence level)",11.7 µg/mL
same,IR (%),U251; 3.125 μg/ml,9.2%
same,OD(A570 nm),U251; 3.125 μg/ml,0.796 ± 0.055
same,IR (%),U251; 6.25 μg/ml,20.6%
same,OD(A570 nm),U251; 6.25 μg/ml,0.696 ± 0.054
same,IR (%),U251; 12.5 μg/ml,59.6%
same,OD(A570 nm),U251; 12.5 μg/ml,0.354 ± 0.021
same,IR (%),U251; 25 μg/ml,90.3%
same,OD(A570 nm),U251; 25 μg/ml,0.085 ± 0.012
same,IR (%),U251; 50 μg/ml,90.1%
same,OD(A570 nm),U251; 50 μg/ml,0.087 ± 0.012
same,IR (%),U251; 100 μg/ml,89.7%
same,OD(A570 nm),U251; 100 μg/ml,0.090 ± 0.014
same,IR (%),MCF-7; 3.125 μg/ml,10.5%
same,OD(A570 nm),MCF-7; 3.125 μg/ml,0.807 ± 0.016
same,IR (%),MCF-7; 6.25 μg/ml,21.5%
same,OD(A570 nm),MCF-7; 6.25 μg/ml,0.708 ± 0.058
same,IR (%),MCF-7; 12.5 μg/ml,28.1%
same,OD(A570 nm),MCF-7; 12.5 μg/ml,0.649 ± 0.036
same,IR (%),MCF-7; 25 μg/ml,89.6%
same,OD(A570 nm),MCF-7; 25 μg/ml,0.094 ± 0.012
same,IR (%),MCF-7; 50 μg/ml,89.1%
same,OD(A570 nm),MCF-7; 50 μg/ml,0.098 ± 0.012
same,IR (%),MCF-7; 100 μg/ml,92.3%
same,OD(A570 nm),MCF-7; 100 μg/ml,0.069 ± 0.007
same,IC50,"MCF-7; MCF7, 95% confidence limits of IC50, read-out: IC50 (95% confidence level), interval",12.3 to 16.1 µg/mL
same,IC50,"MCF-7; MCF7, Bliss method, unit not printed (concentrations in μg/ml), read-out: IC50 (95% confidence level)",14.1 µg/mL

# — US20100189648A1, “INHIBITORS FOR DISRUPTING THE INTERACTION OF UBIQUITINATION RELATED ENZYMES AND USES THEREOF” (priority 2006, published 2010)
